Test results from article PMC8578705 (Cell Reports, 2021).
Several values for one entry are separate records, joined by “and”; a condition that tells them apart may be missing. Identical values can stand only once. Values belong to the compound of their own block, whether it stands above or below them.

Legend:
[1] = test system: mock-transfected HEK cells; test: ER Ca2+ release from permeabilized mock-transfected HEK cells; format: cell-based, Homo sapiens; details: ML-SA1 0-100 μM
Experimental: Figure S5. Evidence that over-expressed TRPML1 releases Ca2+ from ER, and that erlin 2 does not mediate quantal Ca2+ release
Ca2+ uptake into the ER of permeabilized HEK cells was initiated by addition of ATP (1.5 mM), before adding CPA (10 μM) and then the indicated […]
concentration of ML-SA1 (0-100 μM).
(B) Summary results from experiments similar to those shown in Figure 4A show half-times (t1/2) for loss of ER Ca2+ evoked by the indicated concentrations of ML-SA1 (mean ± SEM, n = 4, each with 2 […]
(C) Addition of ATP (1.5 mM) to permeabilized HEK cells stimulates Ca2+ uptake into the ER, reported by the increase in Mag-fluo 4 fluorescence. The response is abolished by CPA (10 µM) added 60 s before ATP. Mean ± SEM, n = 4, each with 2 replicates. RFU, relative fluorescence units.
(D) Permeabilized HEK cells expressing CFP-TRPML1 were treated (60 min) with vehicle (DMSO), bafilomycin A1 (1 µM to inhibit the lysosomal H+ pump) or FCCP (10 µM to dissipate H+ gradients) before addition of ATP (1.5 mM) to initiate Ca2+ uptake. After addition of CPA (10 μM), ML-SA1 (30 µM) was added where indicated. Mean ± SD of 3 replicates. […]
(F) TIRFM images show expression of CFP-TRPML1 and EGFP-IP3R1 in HEK cells expressing both proteins, typical of 3 independent experiments (~10 cells in each). […] It was impracticable, when most CFP-TRPML1 is lysosomal, to quantify any colocalization with IP3Rs. […]

CFP-TRPML1 = molecular target: T1, CFP-TRPML1 (Homo sapiens, UniProt Q9GZU1); test: ER Ca2+ release from permeabilized HEK cells expressing CFP-TRPML1; format: cell-based
T1 construct: host or cells: HEK cells, transient transfection
Text: Figure 4 Neither ER reorganization nor luminal Ca^2+ mediates quantal Ca^2+ release (A) Effects of the indicated concentrations of ML-SA1 on the ER Ca^2+ content of permeabilized HEK cells expressing CFP-TRPML1. (B) Semi-logarithmic plots show mono-exponential loss of ER Ca^2+ after treatment with ML-SA1. Results (A and B) are typical of four experiments, each with duplicate determinations. Summary results are in Figure S5B. (C and D) Permeabilized DT40-IP3R1 cells were loaded to steady state with Ca^2+ before addition of thapsigargin (TG, 1 μM) to inhibit SERCAs. […] Results are typical of 29–36 experiments. […] See also Figure S5.
Incubation of cells with the acetoxymethylester (AM) of Mag-fluo 4 traps low-affinity forms of the indicator ( KdCa = 1.15 mM measured in situ) within the ER. Fluorescence, which is approximately linearly related to ER free [Ca^2+] (since [Ca^2+]ER < KdCa ), can then be used, without further calibration, to reliably report free [Ca^2+] within the ER lumen ([Rossi and Taylor, 2020]). The ER of DT40 or HEK293 cells was loaded with indicator by incubating cells with Mag-fluo 4 AM (20 μM, 60 min, 22°C) in HEPES-buffered saline (HBS: 135 mM NaCl, 5.9 mM KCl, 11.6 mM HEPES, 1.5 mM CaCl2, 11.5 mM glucose, 1.2 mM MgCl2, pH 7.3) as described ([Rossi et al., 2009]). […]

[2] = molecular target: T2, IP3R1 (cerebellar membranes) (Rattus norvegicus, UniProt P29994); test: Equilibrium-competition [3H]IP3 binding to cerebellar membranes in CLM (conditions mimicking functional assays)
T2 construct: membranes from cerebella of adult Wistar rats; from tissue; host or cells: cerebellar membranes of adult Wistar rats
Experimental: Bound and free ligand were separated by centrifugation (22°C, 5 min, 14,000 × g).
(§1) For equilibrium binding and concentration-effect relationships, results from each experiment were fitted to Hill equations (PRISM) from which pIC50 (-log of half-maximal inhibitory concentration) or pEC50 (-log of half-maximally effective concentration) values were determined. KDligand was calculated from: KDligand = […] . In functional assays, dose ratios (DR) were used to calculate antagonist affinities ([Arunlakshana and Schild, 1959]): KDantagonist = [antagonist]/(DR-1).

IP3R1 (DT40-IP3R1 cells) = molecular target: T3, IP3R1 (DT40-IP3R1 cells) (Rattus norvegicus, UniProt P29994); test: Ca2+ release from permeabilized DT40-IP3R1 cells (Mag-fluo 4); format: cell-based
T3 construct: expressed in transfected cells; host or cells: Gallus gallus DT40 cells without native IP3Rs, stably transfected
Experimental: (§2) Incubation of cells with the acetoxymethylester (AM) of Mag-fluo 4 traps low-affinity forms of the indicator ( KdCa = 1.15 mM measured in situ) within the ER. Fluorescence, which is approximately linearly related to ER free [Ca^2+] (since [Ca^2+]ER < KdCa ), can then be used, without further calibration, to reliably report free [Ca^2+] within the ER lumen ([Rossi and Taylor, 2020]). The ER of DT40 or HEK293 cells was loaded with indicator by incubating cells with Mag-fluo 4 AM (20 μM, 60 min, 22°C) in HEPES-buffered saline (HBS: 135 mM NaCl, 5.9 mM KCl, 11.6 mM HEPES, 1.5 mM CaCl2, 11.5 mM glucose, 1.2 mM MgCl2, pH 7.3) as described ([Rossi et al., 2009]). After washing and permeabilization with saponin (10 μg/mL, 37°C, 2-3 min) in Ca^2+-free cytosol-like medium (Ca^2+-free CLM), cells were centrifuged (650 × g, 2 min) and resuspended in Mg^2+-free CLM supplemented with CaCl2 to give a final free [Ca^2+] of 220 nM after addition of 1.5 mM MgATP. Ca^2+-free CLM comprised: 20 mM NaCl, 140 mM KCl, 1 mM EGTA, 20 mM PIPES, 2 mM MgCl2, pH 7.0. Cells (4 × 10^5 cells/well) were attached to poly-L-lysine-coated 96-well black-walled plates (Greiner Bio-One, Stonehouse, UK), and fluorescence (excitation and emission at 485 nm and 520 nm, respectively) was recorded at intervals of 1.44 s using a FlexStation III plate-reader (Molecular Devices, Sunnyvale, CA, USA). MgATP (1.5 mM) was added to initiate Ca^2+ uptake, and when the ER had loaded to steady state with Ca^2+ (∼150 s), ligands were added. Responses to the ligands show ER Ca^2+ contents as either time courses or, in summary results, as the Ca^2+ content recorded 20 s after addition of the stimulus. The distribution of samples across 96-well plates was varied between experiments to avoid any systematic ‘position-related’ artifacts. HEK-G-CEPIA1er cells were permeabilized and assayed as described for Mag-fluo 4-loaded cells.
as §1

[3] = molecular target: T4, NT (residues 1-604 of IP3R1) (Rattus norvegicus, UniProt P29994); test: Equilibrium-competition [3H]IP3 binding to the NT fragment in TEM; details: [3H]IP3 0.75 nM, read-out: NT, KD
T4 construct: Residues 1-604 of rat IP3R1 (NT) in pTrcHisA plasmid; His6 (N, cleaved yes); made in house; host or cells: E. coli (bacterial lysate used in the assay)
Experimental: (§3) IP3R1, which accounts for ∼99% of IP3Rs in cerebellum ([Wojcikiewicz, 1995]), was purified from cerebella of adult Wistar rats using heparin-affinity chromatography ([Rossi et al., 2009]). The purified protein (10 μg/mL) was stored at −80°C in 500 mM NaCl, 50 mM Tris, 10% glycerol, 1 mM 2-mercaptoethanol, 1 mM benzamidine, 1 mM EGTA, 50 mM Tris, 1% CHAPS, pH 8.0. N-terminal fragments of IP3R1 (IBC, residues 224-604; NT, residues 1-604) were expressed as N-terminally tagged His6-fusion proteins in E. coli and cleaved from the tag with thrombin ([Rossi et al., 2009]). […] Bound and free ligand were separated by centrifugation (4°C, 5 min, 14,000 × g).
as §1

IP3R1 = molecular target: T5, IP3R1 (Rattus norvegicus, UniProt P29994); test: Nuclear patch-clamp recording from excised nuclear patches of DT40-IP3R1 cells; format: biochemical, mammalian
T5 construct: expressed in transfected cells; host or cells: Gallus gallus DT40 cells without native IP3Rs, stably transfected
Experimental: The methods used for patch-clamp recording from patches excised from the outer nuclear envelope of DT40-IP3R1 cells, with K^+ as charge-carrier and using QuB ([Qin, 2004]) for analysis of currents, were as described previously ([Taufiq-Ur-Rahman et al., 2009]; [Rossi et al., 2009]). It typically took 30-45 s to establish a recording, and Po was then stable throughout recordings that typically lasted up to 8-10 mins.

[4] = molecular target: T6, IBC (residues 224-604 of IP3R1) (Rattus norvegicus, UniProt P29994); test: Equilibrium-competition [3H]IP3 binding to the IBC fragment in TEM; details: read-out: IBC, KD
T6 construct: Residues 224-604 of rat IP3R1 (IBC) in pTrcHisA plasmid; His6 (N, cleaved yes); made in house; host or cells: E. coli (bacterial lysate used in the assay)
Experimental: as §3, §1

[5] = test system: IP3Rs (wild-type HEK cells); test: Ca2+ release from permeabilized wild-type HEK cells; format: cell-based, Homo sapiens; details: 20 s after addition
Experimental: as §2, §1

T2 sequence (P29994 whole entry): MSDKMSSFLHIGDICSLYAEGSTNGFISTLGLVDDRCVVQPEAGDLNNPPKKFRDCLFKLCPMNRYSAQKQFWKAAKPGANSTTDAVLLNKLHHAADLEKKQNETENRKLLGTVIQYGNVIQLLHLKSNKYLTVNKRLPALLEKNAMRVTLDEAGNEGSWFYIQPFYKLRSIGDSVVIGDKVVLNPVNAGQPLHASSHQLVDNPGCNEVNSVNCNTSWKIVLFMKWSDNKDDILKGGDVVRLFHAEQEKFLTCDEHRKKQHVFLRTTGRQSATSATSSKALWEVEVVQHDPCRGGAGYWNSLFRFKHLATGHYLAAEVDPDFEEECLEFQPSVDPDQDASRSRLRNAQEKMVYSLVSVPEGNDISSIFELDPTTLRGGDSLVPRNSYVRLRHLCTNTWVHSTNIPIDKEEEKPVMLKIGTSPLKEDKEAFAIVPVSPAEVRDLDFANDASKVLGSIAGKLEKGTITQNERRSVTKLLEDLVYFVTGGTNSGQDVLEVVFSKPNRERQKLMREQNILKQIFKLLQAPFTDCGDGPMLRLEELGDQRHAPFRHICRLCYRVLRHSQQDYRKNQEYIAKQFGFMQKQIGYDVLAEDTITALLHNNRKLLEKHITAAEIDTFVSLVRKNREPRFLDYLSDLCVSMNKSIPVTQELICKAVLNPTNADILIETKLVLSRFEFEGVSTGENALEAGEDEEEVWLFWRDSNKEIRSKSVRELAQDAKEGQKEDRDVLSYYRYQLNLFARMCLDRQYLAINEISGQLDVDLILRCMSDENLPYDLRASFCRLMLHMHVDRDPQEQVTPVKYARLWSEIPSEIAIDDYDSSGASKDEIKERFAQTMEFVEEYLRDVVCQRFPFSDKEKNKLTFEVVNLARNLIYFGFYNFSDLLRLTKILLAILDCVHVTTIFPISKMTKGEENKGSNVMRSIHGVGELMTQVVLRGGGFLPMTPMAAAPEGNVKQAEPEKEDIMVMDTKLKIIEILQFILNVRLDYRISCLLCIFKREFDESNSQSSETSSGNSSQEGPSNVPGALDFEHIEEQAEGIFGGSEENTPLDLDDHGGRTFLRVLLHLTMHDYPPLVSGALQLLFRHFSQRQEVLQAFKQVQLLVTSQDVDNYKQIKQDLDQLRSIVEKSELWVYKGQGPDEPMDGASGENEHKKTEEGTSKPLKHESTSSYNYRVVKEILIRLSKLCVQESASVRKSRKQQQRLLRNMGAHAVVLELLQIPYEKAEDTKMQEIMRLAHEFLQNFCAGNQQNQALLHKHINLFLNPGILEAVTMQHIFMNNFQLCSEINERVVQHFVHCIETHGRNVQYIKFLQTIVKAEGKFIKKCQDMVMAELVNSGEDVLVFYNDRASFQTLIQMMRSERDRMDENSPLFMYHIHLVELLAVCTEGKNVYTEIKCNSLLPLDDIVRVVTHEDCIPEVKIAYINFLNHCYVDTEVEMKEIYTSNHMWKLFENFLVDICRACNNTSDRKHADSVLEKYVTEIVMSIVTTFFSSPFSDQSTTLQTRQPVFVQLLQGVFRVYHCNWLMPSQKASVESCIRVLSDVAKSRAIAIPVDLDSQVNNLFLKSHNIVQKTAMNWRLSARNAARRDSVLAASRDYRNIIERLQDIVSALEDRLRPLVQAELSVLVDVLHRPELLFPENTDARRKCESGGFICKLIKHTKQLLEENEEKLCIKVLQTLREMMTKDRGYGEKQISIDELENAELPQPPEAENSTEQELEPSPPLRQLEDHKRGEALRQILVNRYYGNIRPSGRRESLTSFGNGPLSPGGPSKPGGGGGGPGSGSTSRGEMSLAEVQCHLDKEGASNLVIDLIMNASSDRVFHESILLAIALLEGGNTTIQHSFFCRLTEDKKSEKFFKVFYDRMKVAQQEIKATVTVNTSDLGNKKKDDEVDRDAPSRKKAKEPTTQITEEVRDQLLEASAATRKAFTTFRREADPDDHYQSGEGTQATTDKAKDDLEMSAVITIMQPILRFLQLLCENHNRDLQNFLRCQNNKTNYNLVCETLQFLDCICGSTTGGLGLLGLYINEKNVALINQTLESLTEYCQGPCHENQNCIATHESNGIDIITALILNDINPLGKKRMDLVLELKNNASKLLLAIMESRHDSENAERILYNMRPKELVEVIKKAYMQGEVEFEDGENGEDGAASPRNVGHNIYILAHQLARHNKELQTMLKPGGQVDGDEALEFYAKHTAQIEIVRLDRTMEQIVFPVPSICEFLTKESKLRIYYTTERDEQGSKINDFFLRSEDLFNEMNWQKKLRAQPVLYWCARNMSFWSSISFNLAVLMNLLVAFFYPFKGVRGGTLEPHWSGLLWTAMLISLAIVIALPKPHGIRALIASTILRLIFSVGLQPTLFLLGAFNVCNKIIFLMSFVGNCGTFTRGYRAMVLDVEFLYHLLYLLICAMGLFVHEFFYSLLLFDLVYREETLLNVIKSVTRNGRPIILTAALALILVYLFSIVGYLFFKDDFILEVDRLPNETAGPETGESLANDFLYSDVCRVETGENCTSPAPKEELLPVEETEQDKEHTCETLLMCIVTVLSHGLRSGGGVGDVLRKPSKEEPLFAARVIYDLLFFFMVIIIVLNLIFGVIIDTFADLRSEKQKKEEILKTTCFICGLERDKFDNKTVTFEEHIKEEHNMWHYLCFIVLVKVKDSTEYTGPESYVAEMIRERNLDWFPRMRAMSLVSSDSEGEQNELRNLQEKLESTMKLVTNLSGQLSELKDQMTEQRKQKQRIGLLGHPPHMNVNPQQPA
T1 sequence (Q9GZU1 whole entry): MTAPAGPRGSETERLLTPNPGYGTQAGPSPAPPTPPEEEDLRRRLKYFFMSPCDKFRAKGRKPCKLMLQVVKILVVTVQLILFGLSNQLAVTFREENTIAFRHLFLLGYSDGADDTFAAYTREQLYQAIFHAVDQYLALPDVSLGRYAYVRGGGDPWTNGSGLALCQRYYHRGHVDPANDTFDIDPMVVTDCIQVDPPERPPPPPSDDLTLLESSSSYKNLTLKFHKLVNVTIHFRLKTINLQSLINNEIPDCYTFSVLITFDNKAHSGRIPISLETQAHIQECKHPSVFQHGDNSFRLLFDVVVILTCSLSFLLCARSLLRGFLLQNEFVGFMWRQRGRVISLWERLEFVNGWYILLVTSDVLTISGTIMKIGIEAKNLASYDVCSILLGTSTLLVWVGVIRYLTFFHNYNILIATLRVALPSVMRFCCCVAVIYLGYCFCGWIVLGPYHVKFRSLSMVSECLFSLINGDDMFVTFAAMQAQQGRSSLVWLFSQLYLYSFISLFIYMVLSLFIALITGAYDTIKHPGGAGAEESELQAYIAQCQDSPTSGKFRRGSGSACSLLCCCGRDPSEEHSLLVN
T6 sequence (P29994 224-604): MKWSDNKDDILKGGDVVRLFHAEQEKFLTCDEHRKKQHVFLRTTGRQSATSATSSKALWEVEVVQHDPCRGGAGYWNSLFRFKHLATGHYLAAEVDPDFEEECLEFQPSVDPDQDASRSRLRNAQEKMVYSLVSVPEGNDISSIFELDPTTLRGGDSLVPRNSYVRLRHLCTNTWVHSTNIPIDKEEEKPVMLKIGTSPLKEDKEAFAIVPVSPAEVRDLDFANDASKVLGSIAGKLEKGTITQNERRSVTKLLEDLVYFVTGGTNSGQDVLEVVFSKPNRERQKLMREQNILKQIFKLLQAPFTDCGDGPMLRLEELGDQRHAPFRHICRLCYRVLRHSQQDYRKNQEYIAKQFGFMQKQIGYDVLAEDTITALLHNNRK
T4 sequence (P29994 1-604): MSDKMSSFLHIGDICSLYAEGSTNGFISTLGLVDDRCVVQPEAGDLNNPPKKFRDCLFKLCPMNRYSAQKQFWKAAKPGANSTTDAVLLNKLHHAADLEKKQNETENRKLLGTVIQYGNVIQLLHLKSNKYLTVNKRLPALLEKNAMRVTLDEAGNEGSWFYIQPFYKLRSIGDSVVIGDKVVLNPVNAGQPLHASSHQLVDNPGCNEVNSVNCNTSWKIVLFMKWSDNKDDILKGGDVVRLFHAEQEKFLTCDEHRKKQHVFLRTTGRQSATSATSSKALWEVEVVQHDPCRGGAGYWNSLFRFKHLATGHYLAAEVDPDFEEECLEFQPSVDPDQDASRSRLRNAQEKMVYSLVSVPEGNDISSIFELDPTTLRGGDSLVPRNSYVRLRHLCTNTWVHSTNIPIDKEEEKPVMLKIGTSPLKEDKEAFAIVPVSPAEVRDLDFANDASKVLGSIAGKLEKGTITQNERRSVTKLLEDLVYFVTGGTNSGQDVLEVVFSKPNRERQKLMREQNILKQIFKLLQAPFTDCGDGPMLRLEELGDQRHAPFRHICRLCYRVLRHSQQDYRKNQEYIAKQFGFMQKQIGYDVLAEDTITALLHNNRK

Ca2+ release from the ER (CFP-TRPML1): concentration-dependent Ca^2+ release
Compound: ML-SA1
response to ML-SA1 [1]: do not respond

Hill coefficient (h) of binding ([2]; cerebellar membranes, CLM at 20°C): 2.0 ± 0.7
Kd ([2]; cerebellar membranes, CLM, conditions that mimic functional assays): 0.549 µM
KD relative to KD for IP3 (fold lower) ([2]; conditions that mimic functional assays): 1.5 fold
ECI50/KD ratio relative to IP3 (fold greater) (IP3R1 (DT40-IP3R1 cells)): 41 fold
Ca2+ release evoked by 2 (%) (IP3R1 (DT40-IP3R1 cells); 2 at 1 µM, 30 s, permeabilized DT40-IP3R1 cells): 31% ± 7% and 31 ± 7%
Ca2+ stores released by a maximal concentration (IP3R1 (DT40-IP3R1 cells); 2 at 30 μM, determined at 150 s, permeabilized DT40-IP3R1 cells): 52% ± 3%
Kd (IP3R1 (DT40-IP3R1 cells); DT40-IP3R1 cells, read-out: KD derived from functional assays): ~0.45 µM
pKD-pECI50 (IP3R1 (DT40-IP3R1 cells); KD for IP3R1 in TEM, ECI50 in DT40-IP3R1 cells, mean ± SEM): 2.15 ± 0.15
Kb (IP3R1 (DT40-IP3R1 cells); functional analysis, IP3-evoked Ca2+ release ± 2 (1 µM), DT40-IP3R1 cells, read-out: KD determined from dose-ratio analysis, KD = [2]/(DR-1)): 0.426 µM
Ca2+ release, Release (maximal) (IP3R1 (DT40-IP3R1 cells); permeabilized DT40-IP3R1 cells, determined after 20 s, mean ± SEM): 51.9 ± 0.7%
EC50 (IP3R1 (DT40-IP3R1 cells); permeabilized DT40-IP3R1 cells, determined after 20 s, read-out: Ca2+ release, EC50): 0.479 µM
Kd [3]: 0.00232 µM
decrease in τo relative to IP3 (fold) (IP3R1): ~2 fold
maximal NPo relative to IP3 (fold less) (IP3R1): 40 fold
τo, mean channel open time (IP3R1; 10 µM ligand): 4.4 ± 0.20 ms
NPo (channel activity) (IP3R1; 10 µM ligand in pipette, +40 mV, K+ charge carrier, mean ± SEM): 0.012 ± 0.003
γK, single-channel K+ conductance (IP3R1; 10 µM ligand, from current-voltage relationships): 217 ± 4 pS
Kd [4]: 0.00044 µM
Compound: O=C(NCCCN(CCCCN(CCCNC(=O)OCc1ccccc1)C(=O)OCc1ccccc1)C(=O)OCc1ccccc1)NCCO[C@@H]1[C@H](O)[C@@H](OP(=O)(O)O)[C@H](OP(=O)(O)O)[C@@H](O)[C@@H]1OP(=O)(O)O [Compound 2, 2-O-(1,5,10-tris(benzyloxycarbonyl)-15-oxo-1,5,10,14,16-pentaazaoctadecan-18-yl)-1D-myo-inositol 1,4,5-trisphosphate]
Ca2+ release (%) ([5]; maximal): 51 ± 7%
pEC50 ([5]; mean ± SEM): 6.09 ± 0.22
